Literature values as cited in patent US20200171007A1, “Methods of Treating Hepatorenal Syndrome and Hepatic Encephalopathy with Thromboxane-A2 Receptor Antagonists” (Cumberland Pharmaceuticals Inc., priority 2010, published 2020).
Values belong to the compound of their own block, whether it stands above or below them. Where a SMILES comes first, the peptide text is derived from it. Bridges are numbered along the chain shown (N, C = ends). [ ]: non-standard residue; d: D form.

Key:
[1] = tested on: patients with cirrhosis, ascites, and hepatorenal syndrome; settings: case series
[2] = tested on: patients with hepatorenal syndrome; settings: intravenous, twelve patients
[3] = tested on: patients with cirrhosis; settings: patients with cirrhosis / hepatorenal syndrome
[4] = tested on: patients with type 1 hepatorenal syndrome; settings: nonpressor doses, with albumin
[5] = tested on: patients with hepatorenal syndrome; settings: five studies
[6] = tested on: patients with hepatorenal syndrome; settings: ornipressin and albumin
[7] = tested on: patients with type 1 hepatorenal syndrome; settings: type 1 hepatorenal syndrome (octapressin); short-term use (ornipressin)
[8] = tested on: patients with hepatorenal syndrome
[9] = tested on: patients with type 1 hepatorenal syndrome
[10] = includes 2 patients who received liver transplantation

SMILES: CC(C)C[C@@H]1NC(=O)[C@@H](C(C)C)NC(=O)[C@@H]2CCCN2C(=O)[C@@H](CC(=O)O)NC(=O)[C@@H](Cc2c[nH]c3ccccc23)NC1=O [BQ123] (cyclo(L[dW][dD]P[dV]))
patients with improvement in the glomerular filtration rate [1]: 3 patients

SMILES: CC(=O)N[C@@H](CS)C(=O)O [NAC, N-acetylcysteine]
adverse effects [2]: without any adverse effects
survival rate at 1 month [2, 10]: 67%
survival rate at 3 months [2, 10]: 58%

SMILES: CNCC(=O)N[C@@H](CCCN=C(N)N)C(=O)N[C@H](C(=O)N[C@@H](Cc1ccc(O)cc1)C(=O)N[C@H](C(=O)N[C@@H](Cc1cnc[nH]1)C(=O)N1CCC[C@H]1C(=O)N[C@@H](C)C(=O)O)C(C)C)C(C)C [Saralasin]
effect on blood pressure and renal function [3]: worsening hypotension and deterioration in renal function

SMILES: NCCc1ccc(O)c(O)c1 [dopamine]
improvement in renal function [4]: none of the patients treated with dopamine showed any improvement in renal function
changes in renal plasma flow, glomerular filtration rate, or urine output [5]: none have reported significant changes

patients in whom treatment had to be discontinued because of complications (ischemic colitis, tongue ischemia, glossitis) ([6]; 8 patients, after fewer than 9 days): 4 patients
SMILES: NCCC[C@H](NC(=O)[C@@H]1CCCN1C(=O)[C@@H]1CSSC[C@H](N)C(=O)N[C@@H](Cc2ccc(O)cc2)C(=O)N[C@@H](Cc2ccccc2)C(=O)N[C@@H](CCC(N)=O)C(=O)N[C@@H](CC(N)=O)C(=O)N1)C(=O)NCC(N)=O [ornipressin]
improvement in renal plasma flow and glomerular filtration rate ([6]; remaining 4 patients treated for 15 days): significant
Renal plasma flow and glomerular filtration rate [7]: significant increase

SMILES: Cc1ccc(N(CC2=NCCN2)c2cccc(O)c2)cc1 [phentolamine]
effect on blood pressure and renal function [3]: Poor results

Ischemic complications ([9]; in vivo): < 5%
SMILES: NCCCC[C@H](NC(=O)[C@@H]1CCCN1C(=O)[C@@H]1CSSC[C@H](NC(=O)CNC(=O)CNC(=O)CN)C(=O)N[C@@H](Cc2ccc(O)cc2)C(=O)N[C@@H](Cc2ccccc2)C(=O)N[C@@H](CCC(N)=O)C(=O)N[C@@H](CC(N)=O)C(=O)N1)C(=O)NCC(N)=O [terlipressin] (H-GGGCYFQNCPKG-NH2; disulfide 4-9)
adverse ischemic effects ([8]; human, in vivo): No adverse ischemic effects were reported
Reversal of hepatorenal syndrome ([8]; terlipressin and albumin for 5-15 days, 9 patients treated): 7 of 9
recurrent hepatorenal syndrome after treatment discontinuation ([9]; in conjunction with albumin): < 15%
improvement in glomerular filtration rate and reduction in serum creatinine levels to below 1.5 mg/dL, share of patients ([9]; in conjunction with albumin, type 1 hepatorenal syndrome): 60-75%
